# Reference: publication PMC3038857, “Using Nuclear Receptor Activity to Stratify Hepatocarcinogens” (PLoS ONE, 2011)
# Read-outs that look alike come from different tables or passages of the source.
# What was measured:
# [1] = system: Rat Liver; conditions: ref ToxRefDB, cited from earlier work
# [2] = target: T1, LXRa (NR1H3) (Homo sapiens, UniProt Q13133); assay: ATG_LXRa_TRANS: Factorial reporter gene assay (HepG2); format: cell-based
# T1 construct: expressed in transfected cells; host or cells: HepG2
# T1 sequence (Q13133 1-447): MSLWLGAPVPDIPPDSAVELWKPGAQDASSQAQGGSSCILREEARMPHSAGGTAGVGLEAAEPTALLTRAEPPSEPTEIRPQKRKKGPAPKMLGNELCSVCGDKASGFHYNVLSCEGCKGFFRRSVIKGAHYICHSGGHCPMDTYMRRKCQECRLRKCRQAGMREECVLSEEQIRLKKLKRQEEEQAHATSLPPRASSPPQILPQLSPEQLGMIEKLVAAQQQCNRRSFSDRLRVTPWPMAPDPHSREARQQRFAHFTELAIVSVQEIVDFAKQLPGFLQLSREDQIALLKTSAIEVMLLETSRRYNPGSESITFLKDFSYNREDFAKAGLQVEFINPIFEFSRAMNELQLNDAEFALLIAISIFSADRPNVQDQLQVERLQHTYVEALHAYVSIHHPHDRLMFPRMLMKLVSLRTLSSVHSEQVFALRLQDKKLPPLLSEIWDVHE
# Protocol: (§1) A multiple reporter transcription unit (MRTU) library consisting of 48 transcription factor binding sites was transfected into the HepG2 human liver hepatoma cell line. In addition to the cis-acting reporter genes (CIS), a modification of the approach was used to generate a trans-system (TRANS) with a mammalian one-hybrid assay consisting of an additional 25 MRTU library reporting the activity of nuclear receptor super-family members. […] These assays were performed by Attagene Inc. (Morrisville NC) under contract to EPA.
# (§2) In addition to the cis-acting reporter genes (CIS), a modification of the approach was used to generate a trans-system (TRANS) with a mammalian one-hybrid assay consisting of an additional 25 MRTU library reporting the activity of nuclear receptor super-family members. […] Chemicals were then tested in the CIS and TRANS assays at seven concentrations starting at the MTC and followed by three-fold serial dilutions. These assays were performed by Attagene Inc. (Morrisville NC) under contract to EPA. Detailed description of the methods, data and analysis methods for this dataset will be presented in a separate publication.
# [3] = system: Mouse Liver; conditions: ref ToxRefDB, cited from earlier work
# [4] = system: Rat Liver; conditions: ref ToxRefDB, cited from earlier work; remark: listed apart in the source
# [5] = target: T2, PXR (NR1I2) (Homo sapiens, UniProt O75469); assay: ATG_PXRE_CIS: Factorial reporter gene assay (HepG2); format: cell-based; parameters: endogenous in cells; host or cells: HepG2; conditions: HepG2 reporter
# T2 sequence (O75469 1-434): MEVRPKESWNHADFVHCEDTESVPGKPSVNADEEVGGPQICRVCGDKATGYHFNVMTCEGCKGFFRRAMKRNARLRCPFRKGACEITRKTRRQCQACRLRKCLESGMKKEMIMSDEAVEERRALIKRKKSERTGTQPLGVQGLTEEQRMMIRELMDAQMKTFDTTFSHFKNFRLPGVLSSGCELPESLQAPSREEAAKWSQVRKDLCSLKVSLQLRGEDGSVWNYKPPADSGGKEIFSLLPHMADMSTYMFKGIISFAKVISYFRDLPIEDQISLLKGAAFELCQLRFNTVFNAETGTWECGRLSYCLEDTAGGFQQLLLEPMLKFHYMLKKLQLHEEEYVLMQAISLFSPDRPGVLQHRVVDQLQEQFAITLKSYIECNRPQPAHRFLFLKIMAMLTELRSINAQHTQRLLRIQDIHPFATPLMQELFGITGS
# Summary of the method: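 HepG2 cells were transfected with a multiple reporter transcription unit (MRTU) library of 48 transcription factor binding sites for the cis-acting PXRE assay. The ERRg, FXR and PPARg assays used a trans mammalian one-hybrid system with a further 25-unit nuclear receptor MRTU library. Chemicals were tested at seven concentrations, from the MTC downward in three-fold steps.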
# [6] = system: HMGCS2; assay: CLZD_HMGCS2: Change in expression of HMGCS2 (primary human hepatocytes); format: cell-based; conditions: 24 hr
# Protocol: This is a collection of multiplexed gene expression assays focused on Phase I and II xenobiotic metabolizing enzymes and transporters. Human primary cell cultures were treated with chemicals at 5 concentrations (0.004-40 [drawing 42] M) for 6, 24 and 48 hr. Concentration- and time-response profiles of chemicals were measured by the expression of key nuclear receptor target genes, activities of CYP1A enzymes (EROD), and cell morphology. Fourteen gene targets were monitored by quantitative nuclease protection assay including: six representative cytochrome P-450 genes, four hepatic transporters, three Phase II conjugating enzymes, and one endogenous metabolism gene involved in cholesterol synthesis. The target genes associated with nuclear receptor pathways are as follows: [drawing 43] and [drawing 44] with [drawing 45]; [drawing 46] , [drawing 47] , [drawing 48] , [drawing 49] , [drawing 50] and [drawing 51] with [drawing 52]; [drawing 53] , [drawing 54] , [drawing 55] and [drawing 56] with [drawing 57]; [drawing 58] with [drawing 59]; and [drawing 60] with [drawing 61] . Assays were run in primary human hepatocyte cultures by CellzDirect Invitrogen Inc. (Durham, NC), in collaboration with EPA.
# Multiplexed Gene Expression in Human Primary Hepatocytes: This is a collection of multiplexed gene expression assays focused on Phase I and II metabolic enzymes and transporters. […] Fourteen gene targets were monitored by quantitative nuclease protection assay: six representative cytochrome P450 genes, four hepatic transporters, three Phase II conjugating enzymes, and one endogenous metabolism gene involved in cholesterol synthesis. Cells were exposed at 5 concentrations (0.004-40 µM) for 6, 24 or 48 hr. Gene targets are sentinels for five nuclear receptor signaling pathways: AhR, CAR, PXR, FXR, and PPARα. All gene are associated with nuclear receptor pathways: CYP1A1 and CYP1A2 with AHR; ABCB1, ABCG2, CYP2B6, CYP2C9, CYP2C19 and UGT1A1 with CAR; CYP3A4, GSTA2, SLCO1B1 and SULT2A1 with PXR; HMGCS2 with PPARA; and ABCB11 with FXR. […] Detailed description of the methods, data and analysis methods for this dataset will be presented in a separate publication.
# [7] = system: Rat Liver; conditions: ref ToxRefDB, cited from earlier work; remark: listed apart in the source
# [8] = system: Mouse Liver; conditions: chronic study, mouse liver; ref ToxRefDB; cited from earlier work
# [9] = system: Mouse Liver; conditions: chronic study, mouse liver; ref ToxRefDB; cited from earlier work; remark: listed apart in the source
# [10] = system: CYP3A4; assay: CLZD_CYP3A4: Change in expression of CYP3A4 (primary human hepatocytes); format: cell-based; conditions: 24 hr
# Summary of the method: (§3)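 Chemicals are tested in human hepatocyte primary cultures over 0.004-40 µM (5 concentrations) for 6, 24 or 48 hr, and concentration- and time-dependent transcript changes are read by quantitative nuclease protection assay.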
# [11] = target: T3, AHR (aryl hydrocarbon receptor) (Homo sapiens, UniProt P35869); assay: ATG_Ahr_CIS: Factorial reporter gene assay (multiplexed transcription reporter, HepG2); format: cell-based; conditions: HepG2 reporter
# T3 construct: endogenous in cells; host or cells: HepG2
# T3 sequence (P35869 11-848): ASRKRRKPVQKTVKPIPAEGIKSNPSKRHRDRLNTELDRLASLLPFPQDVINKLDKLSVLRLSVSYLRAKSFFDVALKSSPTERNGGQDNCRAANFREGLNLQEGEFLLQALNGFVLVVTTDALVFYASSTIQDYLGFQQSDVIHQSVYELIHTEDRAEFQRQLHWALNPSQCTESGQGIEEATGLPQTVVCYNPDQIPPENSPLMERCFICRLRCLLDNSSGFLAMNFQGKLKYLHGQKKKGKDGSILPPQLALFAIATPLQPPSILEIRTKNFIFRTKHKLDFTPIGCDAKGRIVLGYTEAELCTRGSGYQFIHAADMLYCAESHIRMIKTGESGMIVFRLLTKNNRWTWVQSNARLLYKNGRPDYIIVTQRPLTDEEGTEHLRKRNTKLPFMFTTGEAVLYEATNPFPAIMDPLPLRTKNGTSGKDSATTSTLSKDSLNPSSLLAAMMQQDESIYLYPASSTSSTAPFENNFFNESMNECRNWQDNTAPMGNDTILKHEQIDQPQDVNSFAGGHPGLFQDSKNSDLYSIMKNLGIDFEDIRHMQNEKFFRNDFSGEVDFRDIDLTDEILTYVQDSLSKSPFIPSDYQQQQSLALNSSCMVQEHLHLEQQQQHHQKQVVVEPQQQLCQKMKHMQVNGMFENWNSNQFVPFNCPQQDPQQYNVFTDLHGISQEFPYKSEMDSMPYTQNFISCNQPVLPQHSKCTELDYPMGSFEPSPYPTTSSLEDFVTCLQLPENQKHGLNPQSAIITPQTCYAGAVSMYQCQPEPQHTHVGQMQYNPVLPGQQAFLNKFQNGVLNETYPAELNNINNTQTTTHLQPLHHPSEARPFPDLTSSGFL
# Summary of the method: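 Seven concentrations per chemical, three-fold dilutions down from the MTC, were tested in HepG2 hepatoma cells. Those cells carried a multiple reporter transcription unit library, read either as cis transcription-factor-site reporters or as a trans mammalian one-hybrid panel for nuclear receptors.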
# [12] = target: T4, CAR (NR1I3) (Homo sapiens, UniProt Q14994); assay: ATG_PBREM_CIS: Factorial reporter gene assay (HepG2); format: cell-based; parameters: endogenous in cells; host or cells: HepG2; conditions: HepG2 reporter
# T4 sequence (Q14994 1-352): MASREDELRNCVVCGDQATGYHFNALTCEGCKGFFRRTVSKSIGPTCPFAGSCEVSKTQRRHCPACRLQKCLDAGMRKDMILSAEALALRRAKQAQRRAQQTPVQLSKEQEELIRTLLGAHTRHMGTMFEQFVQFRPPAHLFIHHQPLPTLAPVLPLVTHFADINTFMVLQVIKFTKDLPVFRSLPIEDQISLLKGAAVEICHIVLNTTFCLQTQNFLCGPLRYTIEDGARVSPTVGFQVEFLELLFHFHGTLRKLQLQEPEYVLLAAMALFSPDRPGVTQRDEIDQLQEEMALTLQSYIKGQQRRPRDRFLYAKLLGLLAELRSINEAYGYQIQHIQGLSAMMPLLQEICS
# Protocol: as §1, §2
# [13] = system: CYP2B6; assay: CLZD_CYP2B6: Change in expression of CYP2B6 (primary human hepatocytes); format: cell-based; conditions: 24 hr
# Summary of the method: as §3
# [14] = system: LXRa (NR1H2); assay: NCGC_LXR_Agonist: GAL4 BLAM Reporter gene assay: LXRa; format: cell-based, human; conditions: agonist mode
# Protocol: These assays measure binding constants and enzyme inhibition values for nuclear receptors. The targets include [drawing 67] , [drawing 68] , [drawing 69] , [drawing 70] , [drawing 71] , [drawing 72] , [drawing 73] , [drawing 74] , [drawing 75] and [drawing 76] . Each of the nuclear receptor targets was measured in agonist mode. Assays were run at the NIH Chemical Genomics Center (Rockville, MD).
# Cell-based HTS Assays: These assays measuring binding constants and enzyme inhibition values for nuclear receptors. The targets include AR, ER, FXR, LXR, PPARα, PPARδ, PPARγ, RXRα, RXRβ and PXR. Each of the nuclear receptor targets was measured in both agonist and antagonist mode, but the antagonist data is still undergoing analysis due to possible interference between cytotoxicity and assay activity, so antagonist mode data were not used in the present analysis. Assays were run at the NIH Chemical Genomics Center (Rockville, MD) as part of the Tox21 collaboration. […] The R^2 was required to be ≥0.5. Values where only the highest concentration exceeded 50% activity were excluded to eliminate weak or false positives. Detailed description of the methods, data and analysis methods for this dataset will be presented in a separate publication.
Compound,"CHR_Rat_Liver_3_NeoplasticLesion ([1]; chronic study, rat liver)",ATG_LXRa_TRANS ([2]; HepG2 reporter),"CHR_Mouse_Liver_1_AnyLesion ([3]; chronic study, mouse liver)","CHR_Rat_Liver_2_PreneoplasticLesion ([4]; chronic study, rat liver)",ATG_PXRE_CIS [5],CLZD_HMGCS2_24 [6],"CHR_Rat_Liver_1_AnyLesion ([7]; chronic study, rat liver)",CHR_Mouse_Liver_2_PreneoplasticLesion [8],CHR_Mouse_Liver_3_NeoplasticLesion [9],CLZD_CYP3A4_24 [10],ATG_Ahr_CIS [11],ATG_PBREM_CIS [12],CLZD_CYP2B6_24 [13],"CHR_Rat_Liver_3_NeoplasticLesion ([1]; chronic rat study, liver)",ATG_LXRa_TRANS ([2]; HepG2),"CHR_Mouse_Liver_1_AnyLesion ([3]; chronic mouse study, liver)","CHR_Rat_Liver_2_PreneoplasticLesion ([4]; chronic rat study, liver)","CHR_Rat_Liver_1_AnyLesion ([7]; chronic rat study, liver)",NCGC_LXR_Agonist [14]
CCOC(=O)C(C)Oc1ccc(Oc2cnc3cc(Cl)ccc3n2)cc1 (centres unmarked) [r279],0,4.824,6,0,4.523,5.409,6,6,6,,,,,,,,,,
CCCN(CC)CC1COC2(CCC(C(C)(C)C)CC2)O1 (centres unmarked) [r286],0,,,0,4.886,,0,,,5.192,4.444,4.721,4.532,,,,,,
O=C(NC(=O)c1c(F)cccc1F)Nc1ccc(OC(F)(F)C(F)OC(F)(F)F)c(Cl)c1 (centres unmarked) [row 223],,,,,,,,,,,,,,0,4.523,6,0,6,4.536
